In general, inhibition refers to the change of the read-out against control, counted positive when it falls. One may read the IC50 as the concentration that inhibits the measured activity by half. A high value points to a need for much substance.

These results are taken from paper PMC11758220, “Identification of a Privileged Scaffold for Inhibition of Sterol Transport Proteins through the Synthesis and Ring Distortion of Diverse, Pseudo-Natural Products” (ACS Central Science, 2025).

What all share (type): binding
Experiment [1] concerns the target T1, Aster-C (Homo sapiens, UniProt Q8IYS0).
T1 construct: -C(318-504); GST (PreScission-cleavable) (N, cleaved yes); made in house; host or cells: E. coli OverExpress C41
Kind of experiment: Fluorescence polarisation (FP) competition with NBD-cholesterol, Aster-C. The following applies: for IC50: mean of three experiments run in technical duplicates. The source says:
(§1) Protein expression constructs
(§2) Human ASTER domains of Aster-A(359-547), -B(364-552) and -C(318-504) were subcloned into a pGEX-6p-2rbs vector, thus introducing the cloning artifact ‘GPLGS’.3 The pGEX-6P-1-GST-OSBP(377- […]
(§3) a gift from James H. Hurley (University of California).4 The pHIS_2His6_Thrombin_STARD4(2-205;C75S) plasmid was a gift from Young Jun Im (Chonnam National University).5 STARD5A was a gift from Nicola Burgess-Brown (Addgene plasmid #42392; http://n2t.net/addgene:42392; […]
(§4) Protein expression and purification […]
(§5) vectors including an N-terminal PreScission-cleavable glutathione S-transferase (GST)-tag were expressed in Escherichia coli (E. coli) OverExpress C41 in Terrific Broth (TB) medium for 16 h at 18 °C after the induction with 0.1 mM isopropyl β-D-1-thiogalactopyranoside (IPTG). Cells were harvested at 3500 × g for 15 minutes and lysed by sonication in buffer containing 50 mM HEPES pH 7.5, 300 mM NaCl, 10 %v/v glycerol, 5 mM dithiothreitol (DTT), 0.1 %v/v Triton X-100 and protease inhibitor mix HP plus (Serva). The lysate was purified by affinity chromatography on a GSTrap FF column (Cytiva) using an ÄKTA Start (Cytiva) in buffer containing 50 mM HEPES pH 7.5, 300 mM NaCl, 10 %v/v glycerol, 5 mM DTT and 0.01 %v/v Triton X-100. The GST-tag was cleaved overnight on the column at 4 °C. The Aster sterol binding domains were further purified by size-exclusion chromatography (SEC) on a HiLoad 16/600 Superdex 75 pg (Cytiva) in buffer containing 20 mM HEPES pH 7.5, 300 mM NaCl, 10 %v/v […]
(§6) STARD5(6-213) harboring an N-terminal His6-Tag were expressed in E. coli BL21(DE3) in Luria-Bertani Broth (LB) medium for approximately 16 h at 18 °C after induction with 0.15 mM IPTG. Cells were harvested at 3500 × g for 15 minutes and lysed by sonication in buffer containing 50 mM HEPES pH 7.5, 150 mM NaCl, 5 %v/v glycerol, 5 mM DTT, 0.1 %v/v Triton X -100 and ethylenediaminetetraacetic acid (EDTA)-free protease inhibitor cocktail (Sigma-Aldrich). The cleared lysate was purified by affinity chromatography on a Ni-NTA Superflow Cartridge (Qiagen) using an ÄKTA Start (Cytiva) in buffer containing 50 mM HEPES pH 7.5, 150 mM NaCl, 5 %v/v glycerol, 5 mM DTT. START domains were eluted by using elution buffer containing 50 mM HEPES pH 7.5, 150 mM NaCl, 5 %v/v glycerol, 5 mM DTT and 500 mM imidazole. Proteins were further purified by SEC on a HiLoad 16/600 Superdex 75 pg (Cytiva) in buffer containing 20 mM HEPES pH 7.5, 150 mM NaCl, 5 %v/v glycerol and 2 mM DTT.
(§7) The ORP domain of human OSBP(377-807) in the pGEX-6p-1 vector with an N-terminal PreScission-cleavable GST-tag was expressed in E. coli OverExpress C41 in LB medium for 16 h at 18 °C after induction with 0.1 mM IPTG. Cells were harvested at 3500 × g for 15 minutes and lysed by sonication in buffer containing 20 mM HEPES pH 7.5, 300 mM NaCl, 10 %v/v glycerol, 5 mM DTT, 0.1 %v/v Triton X-100 and EDTA-free protease inhibitor cocktail (Sigma-Aldrich). The cleared lysate was purified by affinity chromatography on a GSTrap HF column (Cytiva) using an ÄKTA Start (Cytiva) in buffer containing 20 mM HEPES pH 7.5, 300 mM NaCl, 10 %v/v glycerol, 5 mM DTT. OSBP(377 -807) was eluted by using elution buffer containing 20 mM HEPES pH 7.5, 300 mM NaCl, 10 %v/v glycerol, 5 mM DTT and 10 mM reduced glutathione. Proteins were further purified by SEC on a HiLoad 16/600 Superdex 75 pg (Cytiva) using an ÄKTA Explorer (Cytiva) in buffer containing 20 mM HEPES pH 7.5, 150 mM NaCl, 10 %v/v glycerol and 2 mM DTT.
(§8) The ORP domains of human ORP1(534-950) in pET24b(+) and ORP2(49-480) in the pET24b(+) vector including an N-terminal His6-Tag were expressed in E. coli BL21(DE3) in TB medium for approximately 16 h at 18 °C after induction with 0.1 mM IPTG. Cells were collected at 3500 × g for 15 minutes and lysed by sonification in buffer containing 10 mM Tris-HCl pH 8, 300 mM NaCl, 5 % glycerol, 2 mM DTT, 0.1 % Triton X-100 and EDTA-free protease inhibitor cocktail (Sigma-Aldrich). The cleared […]

Experiment [2] addresses T2, STARD1 (Homo sapiens, UniProt P49675).
T2 construct: STARD1(66-284); made in house; host or cells: E. coli BL21(DE3)
T2 sequence (P49675 66-284): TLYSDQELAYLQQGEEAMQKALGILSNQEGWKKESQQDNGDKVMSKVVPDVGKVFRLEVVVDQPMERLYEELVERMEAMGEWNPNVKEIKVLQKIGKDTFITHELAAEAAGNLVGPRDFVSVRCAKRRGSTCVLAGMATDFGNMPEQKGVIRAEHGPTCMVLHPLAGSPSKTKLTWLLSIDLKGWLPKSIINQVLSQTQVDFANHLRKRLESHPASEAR
Kind of experiment: Fluorescence polarisation (FP) competition with NBD-cholesterol, STARD1. The following applies: single dose, Dose = 10 µM. In general terms: In fluorescence polarisation assays a small probe gives low polarisation when free and higher when bound to something large.

Experiment [3] concerns the target T3, OSBP (Homo sapiens, UniProt P22059).
T3 construct: OSBP(377-807); host or cells: E. coli OverExpress C41
T3 sequence (P22059 377-807): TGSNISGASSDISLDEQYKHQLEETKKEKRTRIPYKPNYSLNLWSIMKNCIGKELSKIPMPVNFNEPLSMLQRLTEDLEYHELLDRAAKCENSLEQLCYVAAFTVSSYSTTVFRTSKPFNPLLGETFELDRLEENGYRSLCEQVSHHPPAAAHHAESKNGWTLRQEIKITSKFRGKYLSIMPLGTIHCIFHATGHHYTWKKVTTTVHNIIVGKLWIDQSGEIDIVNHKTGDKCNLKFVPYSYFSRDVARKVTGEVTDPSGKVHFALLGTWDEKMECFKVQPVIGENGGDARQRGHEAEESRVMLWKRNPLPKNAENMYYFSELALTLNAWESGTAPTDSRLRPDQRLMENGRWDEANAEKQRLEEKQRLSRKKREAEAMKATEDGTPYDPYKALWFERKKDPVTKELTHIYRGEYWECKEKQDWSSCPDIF
Put plainly: Fluorescence polarisation (FP) competition with NBD-cholesterol, OSBP. The following applies: single dose.
Text: as §1, §2, §3, §4, §5, §6, §7, §8

T1 sequence (Q8IYS0 318-504): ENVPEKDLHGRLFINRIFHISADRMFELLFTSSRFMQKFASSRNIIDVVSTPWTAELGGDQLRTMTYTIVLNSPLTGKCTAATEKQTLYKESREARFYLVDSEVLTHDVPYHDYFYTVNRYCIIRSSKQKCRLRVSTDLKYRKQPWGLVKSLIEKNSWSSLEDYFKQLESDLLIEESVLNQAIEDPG

As to `Cc1ccc2c(c1)C(=O)CC[C@@H]1C[C@H](O)CC[C@]1(C)C(=O)N2` [Compound 11c], the inhibition at 10 µM is -5.6% in experiment [1] (single dose, Dose = 10 µM); 25% in experiment [2]; 18.7% in experiment [3].
As to `COc1ccc2c(c1)C(=O)CC[C@@H]1C[C@H](O)CC[C@]1(C)C(=O)N2` [Compound 11d], the inhibition at 10 µM was 1.6% in experiment [1] (single dose, Dose = 10 µM); 5% in experiment [2]; -5.3% in experiment [3].
As to `C[C@]12CC[C@@H](O)C[C@H]1CCC(=O)c1cc(C(F)(F)F)ccc1NC2=O` [Compound 11e], the inhibition at 10 µM in experiment [1] (single dose, Dose = 10 µM) was -1.6%; in experiment [2] it was 10%; in experiment [3], 15%.
`C[C@]12CC[C@@H](O)C[C@H]1CCC(=O)c1cc(Cl)cc(F)c1NC2=O` [Compound 11f]: in experiment [1] (single dose, Dose = 10 µM), the “Aster-C (FP) inhibition” value is on record as -0.8%. Besides, the “STARD1 (FP) inhibition” value in experiment [2] was -3.33%. Besides, in experiment [3] (Dose = 10 µM), the “OSBP (FP) inhibition” value was determined as 9.0%.
For `Cc1cc(C)c2c(c1)NC(=O)[C@@]1(C)CC[C@@H](O)C[C@H]1CCC2=O` [Compound 11g], the inhibition at 10 µM in experiment [1] (single dose, Dose = 10 µM) is -0.8%; in experiment [2], -8%; in experiment [3] it was -5.3%.
For `Cc1ccc2[nH]c3c(c(=O)c2c1)C[C@@H]1C[C@H](O)CC[C@]31C` [Compound 12] the same measures were 0%, 5% and 2%.
Take `Cc1ccc2c(c1)[C@]1(O)CC[C@@H]3C[C@H](O)CC[C@]3(C)C1=N2` [Compound 14a]: the inhibition at 10 µM in experiment [1] (single dose, Dose = 10 µM) was -1%; in experiment [2] it was 17%; in experiment [3], 17.3%.
Take `COc1ccc2c(c1)[C@]1(O)CC[C@@H]3C[C@H](O)CC[C@]3(C)C1=N2` [Compound 14b]: the inhibition at 10 µM was found to be 3.2% in experiment [1] (single dose, Dose = 10 µM); 10% in experiment [2]; 9.3% in experiment [3].
Consider `Cc1cc(C)c2c(c1)N=C1[C@@]2(O)CC[C@@H]2C[C@H](O)CC[C@]12C` [Compound 14c], for which the inhibition at 10 µM in experiment [1] (single dose, Dose = 10 µM) is 3.2%; in experiment [2], 10%; in experiment [3], 2.7%.
In the case of `C[C@]12CC[C@@H]3C[C@H]1CC[C@@]21C(=Nc2ccccc21)O3` [Compound 15a], the IC50 in experiment [1] is greater than 80 µM. Moreover, the inhibition at 10 µM in experiment [1] (single dose, Dose = 10 µM) is -4%; in experiment [2], 18%; in experiment [3] it was 0%.
For `CC12CCC3CC1CCC21C(=Nc2ccc(Cl)cc21)O3` (stereo not drawn) [Compound 15c], in that order: greater than 80 µM, -4%, 20% and 3%.
For `C[C@]12CC[C@@H]3C[C@H]1CC[C@@]21C(=Nc2ccc(F)cc21)O3` [Compound 15d] the same measures were greater than 80 µM, -4%, 17% and 2.5%.
`Cc1ccc2c(c1)[C@@]13CC[C@@H]4C[C@@H](CC[C@@]41C)OC3=N2` [Compound 15e]: in experiment [1], the IC50 is greater than 80 µM. In addition, the inhibition at 10 µM in experiment [1] (single dose, Dose = 10 µM) is 7%; in experiment [2], 45%; in experiment [3] it was 5%.
The compound `COc1ccc2c(c1)[C@@]13CC[C@@H]4C[C@@H](CC[C@@]41C)OC3=N2` [Compound 15f] returned an IC50 in experiment [1] greater than 80 µM. Further, the inhibition at 10 µM in experiment [1] (single dose, Dose = 10 µM) was 10%; in experiment [2], 15%; in experiment [3] it was 10%.
`C[C@]12CC[C@@H]3C[C@H]1CC[C@@]21C(=Nc2ccc(C(F)(F)F)cc21)O3` [Compound 15g] gave an IC50 in experiment [1] greater than 80 µM. Further, the inhibition at 10 µM in experiment [1] (single dose, Dose = 10 µM) is -0.8%; in experiment [2], 25%; in experiment [3] it was 16%.
For `CC12CCC3CC1CCC21C(=Nc2c(Br)cc(C(F)(F)F)cc21)O3` (stereo not drawn) [Compound 15h] the same measures were greater than 80 µM, 0%, 17% and 10%.
Regarding `C[C@]12CC[C@@H]3C[C@H]1CC[C@@]21C(=Nc2c(F)cc(Cl)cc21)O3` [Compound 15i], the IC50 in experiment [1] was greater than 80 µM. Further, the inhibition at 10 µM in experiment [1] (single dose, Dose = 10 µM) was -1.6%; in experiment [2], 28%; in experiment [3], 8.3%.
For `CC12CCC3CC1CCC21C(=Nc2ccc(NCc4ccccc4)cc21)O3` (stereo not drawn) [Compound 19b] the same measures were greater than 80 µM, -2.4%, 35% and 23%.
`CCCCCNc1ccc2c(c1)[C@@]13CC[C@@H]4C[C@@H](CC[C@@]41C)OC3=N2` [Compound 19c] registered an IC50 in experiment [1] greater than 80 µM. Further, the inhibition at 10 µM in experiment [1] (single dose, Dose = 10 µM) was 1.6%; in experiment [2], 28%; in experiment [3] it was 18.6%.
In experiment [1], `CCCCN(C)c1ccc2c(c1)[C@@]13CC[C@@H]4C[C@@H](CC[C@@]41C)OC3=N2` [Compound 19d] yielded an IC50 greater than 80 µM. In addition, the inhibition at 10 µM in experiment [1] (single dose, Dose = 10 µM) was -5%; in experiment [2] it was 33%; in experiment [3], 49%.
In turn, `CC(C)(C)OC(=O)N1CCN(c2ccc3c(c2)C24CCC5CC(CCC52C)OC4=N3)CC1` (stereo not drawn) [Compound 19e] showed an IC50 in experiment [1] greater than 80 µM. Further, the inhibition at 10 µM amounted to 1.6% in experiment [1] (single dose, Dose = 10 µM); 25% in experiment [2]; 17.2% in experiment [3].
